According to patent EP2935231B1, “C-XYLOSIDE COMPOUNDS, COMPOSITIONS AND USE THEREOF TO DEPIGMENT THE SKIN” (L'OREAL, priority 2012, dated 2014):
Read-outs that look alike come from different tables or passages of the source. Each block holds one compound with its values, some of them ahead of it.

Legend:
[1] = system: coculture de kératinocytes et de mélanocytes; assay: Cytotoxicity on keratinocyte/melanocyte coculture (leucine incorporation); conditions: coculture of keratinocytes and melanocytes
Source text: (§1) Ce test est réalisé sur coculture de kératinocytes et de mélanocytes.
(§2) Pour le composé testé, il a été déterminé : • la cytotoxicité, en estimant l'incorporation de la leucine, • l'activité inhibitrice sur la synthèse de la mélanine, en estimant le rapport de l'incorporation de thiouracile à l'incorporation de leucine, rapporté à 100 % du témoin (le témoin correspond au test réalisé sans composé à testé). Les valeurs des IC50 (concentration pour laquelle 50 % de la synthèse de la mélanine est inhibée) ont été déterminées.

synthèse de la mélanine = assay: Inhibition of melanin synthesis in keratinocyte/melanocyte coculture (ratio of thiouracil to leucine incorporation); assay type: cell-based; conditions: concentration at which 50 % of melanin synthesis is inhibited; thiouracil/leucine incorporation relative to 100 % of control
Source text: as §1, §2

[2] = system: modèle de peau reconstruite complet comprenant un derme vivant; assay: Pigmentation in complete reconstructed skin model with living dermis, pigmentation induced by forskolin; assay type: cell-based
Source text: L'activité du composé 1 a été évaluée sur le modèle de peau reconstruite complet décrit dans le brevet FR2928654 selon le procédé décrit dans le brevet FR2930644.
Le composé 1 a été ajouté au milieu de culture pendant une période de 16 jours à partir du 2eme jour de la phase d'émersion. La pigmentation a été induite par la Forskoline ajoutée pendant une période de 14 jours à partir du 4eme jour d'émersion (condition contrôle positif pigmenté).
Le composé 1 a montré une activité dépigmentante sur les paramètres suivants : • Luminance (clarté de la peau) plus la valeur de luminance est élevée plus l'échantillon de peau est clair : • augmentation significative de 6 points de la luminance pour le composé1 (Valeur de L contrôle positif = 63, valeur de L traitement par molécule 1 à 1 mM = 69) • Quantification de la mélanine par analyse d'images sur des coupes colorées au Fontana Masson (coloration argentique des grains de mélanine) : réduction de 60% de la quantité de mélanine par le composé 1 (contrôle positif = valeur arbitraire de 100%, composé 1 à 1 mM = 39,48%).

[3] = system: coculture de kératinocytes et de mélanocytes
Source text: as §1, §2

IC50 (synthèse de la mélanine): > 500 µM
Compound: O=c1cc(CO)occ1O [Acide kojique]
Cytotoxicité sur co-culture [1]: 100 µM

IC50 (synthèse de la mélanine): > 500 µM
Compound: OC[C@H]1O[C@@H](Oc2ccc(O)cc2)[C@H](O)[C@@H](O)[C@@H]1O [Arbutine]
Cytotoxicité sur co-culture [1]: Non cytotoxique

Compound: COc1cc(CCC(O)CC2OC[C@@H](O)[C@H](O)[C@H]2O)ccc1O (stereo partly drawn) [Composé 1, (3R,4S,5R)-2-[2-hydroxy-4-(4-hydroxy-3-methoxyphenyl)butyl]tetrahydro-2H-pyran-3,4,5-triol]
valeur de L (luminance) ([2]; 1 mM, 16 days in culture medium, forskolin-induced pigmentation, higher = lighter skin): 69
augmentation de la luminance ([2]; 1 mM, 16 days in culture medium, versus forskolin positive control (L = 63)): 6 points
quantité de mélanine (contrôle positif = valeur arbitraire de 100%) ([2]; 1 mM, image analysis of Fontana Masson stained sections): 39,48%
réduction de la quantité de mélanine ([2]; 1 mM, image analysis of Fontana Masson stained sections, versus positive control): 60%
effet toxique ([2]; histology (morphology of reconstructed skin) and number of melanocytes (TRP1 labelling, DOPA reaction on epidermal sheet)): absence d'effet toxique

IC50 (synthèse de la mélanine): 145 µM
Compound: Oc1ccc(CCC(O)CC2OC[C@@H](O)[C@H](O)[C@H]2O)c(O)c1 (stereo partly drawn) [Composé 11, (3R,4S,5R)-2-[2-hydroxy-4-(2,4-di-hydroxy-phenyl)butyl]tetrahydro-2H-pyran-3,4,5-triol]
Cytotoxicité sur co-culture [3]: Non cytotoxique
